T1: mouse TCTP (mouse, UniProt P63028 1-172)
T1 construct: also called TCTP in the whole cell lysate of TCTP WT SL4 cells; TCTP released from dead SL4 cells
T1 sequence (looked up): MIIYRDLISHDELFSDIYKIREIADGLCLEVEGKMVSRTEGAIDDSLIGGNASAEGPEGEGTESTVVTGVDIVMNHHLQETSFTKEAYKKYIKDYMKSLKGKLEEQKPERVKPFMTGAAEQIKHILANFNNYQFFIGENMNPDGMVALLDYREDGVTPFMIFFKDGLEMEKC


Key:
[1] = tested on: IL-2ss-TCTP tumors; test: Proliferation assay of subcutaneously transplanted IL-2ss-TCTP SL4 tumor in C57BL/6 mice; assay type: in vivo, mouse; details: 50 mg/kg orally, FIG. 11(i)
Protocol: In FIG. 11(a), PECs (2×10^5 cells) or SL4 cells (1×10^5 cells) were stimulated with recombinant TCTP for 2 hours. Thereafter, Cxcl1 mRNA was quantified by qRT-PCR (n=3). In FIG. 11(b), the Cxcl1 mRNA of TCTP WO SL4 cells and TCTP KO SL4 cells was quantified by RT-qPCR. n=3. In FIG. 11(c), SL4 cells (2×10^5 cells) were subcutaneously transplanted into C57BL/6 mice (n=3). On Day 21 after the transplantation, single cell suspensions were prepared from tumors. Thereafter, various immune cells (PMN-MDSCs, M-MDSCs, TAMS, DCs, T cells, B cells, and NK cells) were separated, and the Cxcl2 mRNA of individual cells was then quantified by qRT-PCR. In FIG. 11(d), PECs (2×10^5 cells) were stimulated with recombinant IL-la for 2 hours. Thereafter, Cxcl1 mRNA was quantified by qRT-PCR (n=3). […] HEK293T cells transiently expressing TLR2-YFP and Flag-TCTP were subjected to immunoprecipitation with an anti-GFP antibody, and thereafter, were analyzed with an anti-Flag antibody (upper view), and TLR2 and TCTP in the whole cell lysate were detected (lower view). […] The tumor volume was measured over time. In FIG. 11(i), IL-2ss-TCTP SL4 cells (2×10^5 cells) were subcutaneously transplanted into C57BL/6 mice, and the tumor volume was then measured over time. […]

[2] = molecular target: T1, mouse TCTP; test: immunoblotting of whole cell lysates of TCTP WT and TCTP KO SL4 cells

binding result [2]	Molecule	proliferation of IL-2ss-TCTP tumors [1]
	COc1cccc(C=O)c1O [O -vanillin, O-vanillin]	suppressed
binds	55F3 antibody (antibody, V domains shown, also called 55F3E5; 55F3E5 (55F3) monoclonal antibody) VH: DVQLQESGPGLVKPSQSLSLTCTATGYSIASDYAWNWIRQFPGNKLEWMGYINYSGSTGYNPSLKSRISITRDTSKNQFFLQLNSVTTEDTATYYCARFEAGYWGQGTTLTVSS VL: DIKMTQSPSSMSASLGERVTITCKASQDINRYLSWFQQKPGKSPKTLIYRANRLVDGVPSRFSGSGSGQDYSLTISSLEYGDMGIYYCLQYNEFPLTFGAGTKLELKR	

Source: US20230312744A1, “Modulatory Substance of Tumor Immune Microenvironment, and Preventive, Diagnostic and/or Therapeutic Utilization of the Same” (The University Of Tokyo, priority 2020, published 2023)
